What was measured:
[1] = molecular target: T1, Acetylcholinesterase (Homo sapiens, UniProt P22303); experiment: Potency index, ratio of IC50 for 6-cholorotacrine to compound IC50 for Inhibition of human recombinant AChE expressed in HEK293 cells; assay type: cell-based
[2] = molecular target: Amyloid-beta precursor protein (Homo sapiens) (UniProt P05067); experiment: Inhibition of human recombinant amyloid beta (1 to 42) aggregation expressed in Escherichia coli BL21 (DE3) at 10 uM by Thioflavin S steady state fluorescence assay relative to control
Amyloid-beta precursor protein (Homo sapiens), sequence (P05067 whole entry): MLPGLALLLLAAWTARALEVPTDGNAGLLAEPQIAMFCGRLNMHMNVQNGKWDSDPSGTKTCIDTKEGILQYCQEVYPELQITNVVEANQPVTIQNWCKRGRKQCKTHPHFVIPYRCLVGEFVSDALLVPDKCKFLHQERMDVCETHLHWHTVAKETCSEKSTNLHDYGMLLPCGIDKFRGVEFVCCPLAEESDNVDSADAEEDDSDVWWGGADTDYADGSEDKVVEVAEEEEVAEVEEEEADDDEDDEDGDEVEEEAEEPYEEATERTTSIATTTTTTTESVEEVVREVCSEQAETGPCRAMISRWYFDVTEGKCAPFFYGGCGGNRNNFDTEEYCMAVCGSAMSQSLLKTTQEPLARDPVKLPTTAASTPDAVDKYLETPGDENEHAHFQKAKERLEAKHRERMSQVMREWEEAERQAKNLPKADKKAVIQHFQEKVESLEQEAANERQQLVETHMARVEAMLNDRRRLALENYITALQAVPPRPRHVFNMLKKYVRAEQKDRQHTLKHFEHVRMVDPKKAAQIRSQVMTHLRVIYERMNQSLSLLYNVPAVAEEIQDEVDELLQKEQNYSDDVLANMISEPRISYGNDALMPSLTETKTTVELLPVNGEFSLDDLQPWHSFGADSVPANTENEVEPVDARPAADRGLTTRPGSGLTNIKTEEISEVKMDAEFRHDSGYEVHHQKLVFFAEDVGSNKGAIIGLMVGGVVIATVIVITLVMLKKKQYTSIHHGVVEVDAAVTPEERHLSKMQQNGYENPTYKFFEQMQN

[3] = molecular target: Glutamate NMDA receptor; experiment: Antagonist activity at NMDA receptor in rat CGN cells assessed as […] in intracellular calcium level incubated for 30 mins in presence of Fura-2AM followed by NMDA/glycine stimulation by fluorescence spectrometer analysis; assay type: cell-based
[4] = molecular target: Beta-secretase 1 (Homo sapiens) (UniProt P56817); experiment: Inhibition of human recombinant BACE-1 expressed in baculovirus expression system at 5 uM using panvera peptide as substrate measured after 1 hr by FRET assay relative to control
Beta-secretase 1 (Homo sapiens), sequence (P56817 whole entry): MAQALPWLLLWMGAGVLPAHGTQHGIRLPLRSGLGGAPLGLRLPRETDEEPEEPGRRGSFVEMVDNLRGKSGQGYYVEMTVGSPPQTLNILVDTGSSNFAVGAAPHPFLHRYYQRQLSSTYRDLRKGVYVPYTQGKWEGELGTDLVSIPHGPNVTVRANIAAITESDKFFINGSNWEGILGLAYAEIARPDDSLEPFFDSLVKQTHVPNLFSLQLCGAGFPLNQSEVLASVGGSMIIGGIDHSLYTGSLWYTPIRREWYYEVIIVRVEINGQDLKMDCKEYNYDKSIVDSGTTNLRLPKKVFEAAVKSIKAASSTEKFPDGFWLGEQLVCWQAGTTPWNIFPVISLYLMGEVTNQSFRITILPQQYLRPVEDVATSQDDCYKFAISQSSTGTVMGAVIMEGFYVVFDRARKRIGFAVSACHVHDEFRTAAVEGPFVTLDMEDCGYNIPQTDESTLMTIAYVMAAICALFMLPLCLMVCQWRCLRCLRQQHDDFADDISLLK

[5] = molecular target: Microtubule-associated protein tau (Homo sapiens) (UniProt P10636); experiment: Inhibition of tau aggregation (unknown origin) expressed in Escherichia coli BL21 (DE3) at 10 uM by Thioflavin S steady state fluorescence assay relative to control
Microtubule-associated protein tau (Homo sapiens), sequence (P10636 whole entry): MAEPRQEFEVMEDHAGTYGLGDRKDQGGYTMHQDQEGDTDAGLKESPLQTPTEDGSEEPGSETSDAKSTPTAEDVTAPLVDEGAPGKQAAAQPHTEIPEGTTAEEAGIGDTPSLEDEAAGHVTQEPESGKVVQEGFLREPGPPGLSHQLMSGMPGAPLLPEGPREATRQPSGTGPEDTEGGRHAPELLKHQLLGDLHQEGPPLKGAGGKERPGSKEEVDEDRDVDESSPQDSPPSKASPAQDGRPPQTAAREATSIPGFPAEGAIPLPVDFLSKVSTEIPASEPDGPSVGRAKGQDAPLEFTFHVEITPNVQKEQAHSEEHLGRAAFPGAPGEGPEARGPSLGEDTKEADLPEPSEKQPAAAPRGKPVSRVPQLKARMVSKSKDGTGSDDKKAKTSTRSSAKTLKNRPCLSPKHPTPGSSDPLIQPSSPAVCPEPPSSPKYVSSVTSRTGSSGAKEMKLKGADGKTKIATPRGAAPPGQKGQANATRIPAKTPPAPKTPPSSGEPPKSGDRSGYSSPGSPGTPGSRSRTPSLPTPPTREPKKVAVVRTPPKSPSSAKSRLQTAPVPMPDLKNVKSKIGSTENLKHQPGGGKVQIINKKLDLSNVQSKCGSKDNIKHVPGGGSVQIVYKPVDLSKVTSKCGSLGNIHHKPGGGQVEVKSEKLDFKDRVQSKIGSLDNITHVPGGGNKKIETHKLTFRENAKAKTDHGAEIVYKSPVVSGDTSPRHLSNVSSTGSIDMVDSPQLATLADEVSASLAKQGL

[6] = molecular target: T2, Cholinesterase (Homo sapiens, UniProt P06276); experiment: Inhibition of human serum BChE using butyrylthiocholine iodide as substrate preincubated for 20 mins followed by substrate addition by spectrophotometry analysis
T2 sequence (P06276 whole entry): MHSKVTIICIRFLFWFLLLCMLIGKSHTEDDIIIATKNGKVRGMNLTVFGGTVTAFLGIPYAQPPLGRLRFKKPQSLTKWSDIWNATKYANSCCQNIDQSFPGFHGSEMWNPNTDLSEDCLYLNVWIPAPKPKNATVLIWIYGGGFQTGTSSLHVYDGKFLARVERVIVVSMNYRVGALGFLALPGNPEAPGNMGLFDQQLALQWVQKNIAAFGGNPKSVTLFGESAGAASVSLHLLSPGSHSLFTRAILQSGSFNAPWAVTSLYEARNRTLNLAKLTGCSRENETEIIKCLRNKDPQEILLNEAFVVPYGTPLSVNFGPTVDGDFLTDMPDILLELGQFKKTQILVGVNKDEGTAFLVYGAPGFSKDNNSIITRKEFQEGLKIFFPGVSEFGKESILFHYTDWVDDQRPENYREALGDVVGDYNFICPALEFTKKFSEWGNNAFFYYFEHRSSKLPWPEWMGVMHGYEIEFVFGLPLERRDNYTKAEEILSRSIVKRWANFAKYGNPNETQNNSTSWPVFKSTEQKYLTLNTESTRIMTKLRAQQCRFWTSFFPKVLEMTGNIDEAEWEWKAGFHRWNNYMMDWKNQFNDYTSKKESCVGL

[7] = in vitro; conditions: PAMPA
Description: Permeability of the compound measured after compound dilution in PBS/EtOH buffer (70:30) by PAMPA-BBB assay

[8] = molecular target: T1, Acetylcholinesterase; experiment: Inhibition of human recombinant AChE expressed in HEK293 cells using acetylthiocholine iodide as substrate preincubated for 20 mins followed by substrate addition by spectrophotometry analysis
[9] = molecular target: T3, Glutamate NMDA receptor (Rattus norvegicus) (UniProt P35439+Q00959+Q00960+Q00961+Q62645+Q8VHN2+Q9R1M7); experiment: Potency index, ratio of memantine IC50 to compound IC50 for antagonist activity at NMDA receptor in rat CGN cells; assay type: cell-based
[10] = molecular target: T3, Glutamate NMDA receptor (Rattus norvegicus); experiment: Potency index, ratio of benzoho-moadamantanamine IC50 to compound IC50 for antagonist activity at NMDA receptor in rat CGN cells; assay type: cell-based
[11] = molecular target: T2, Cholinesterase; experiment: Potency index, ratio of IC50 for 6-cholorotacrine to compound IC50 for Inhibition of human serum BChE
[12] = molecular target: Glutamate NMDA receptor; GRIN1/GRIN2B (Homo sapiens, UniProt Q05586+Q13224); experiment: Inhibition of recombinant GluN1/GluN2B receptor (unknown origin) expressed in HEK293 cells by patch-clamp method; assay type: cell-based
Glutamate NMDA receptor; GRIN1/GRIN2B, sequence (Q13224 whole entry, other chains not shown): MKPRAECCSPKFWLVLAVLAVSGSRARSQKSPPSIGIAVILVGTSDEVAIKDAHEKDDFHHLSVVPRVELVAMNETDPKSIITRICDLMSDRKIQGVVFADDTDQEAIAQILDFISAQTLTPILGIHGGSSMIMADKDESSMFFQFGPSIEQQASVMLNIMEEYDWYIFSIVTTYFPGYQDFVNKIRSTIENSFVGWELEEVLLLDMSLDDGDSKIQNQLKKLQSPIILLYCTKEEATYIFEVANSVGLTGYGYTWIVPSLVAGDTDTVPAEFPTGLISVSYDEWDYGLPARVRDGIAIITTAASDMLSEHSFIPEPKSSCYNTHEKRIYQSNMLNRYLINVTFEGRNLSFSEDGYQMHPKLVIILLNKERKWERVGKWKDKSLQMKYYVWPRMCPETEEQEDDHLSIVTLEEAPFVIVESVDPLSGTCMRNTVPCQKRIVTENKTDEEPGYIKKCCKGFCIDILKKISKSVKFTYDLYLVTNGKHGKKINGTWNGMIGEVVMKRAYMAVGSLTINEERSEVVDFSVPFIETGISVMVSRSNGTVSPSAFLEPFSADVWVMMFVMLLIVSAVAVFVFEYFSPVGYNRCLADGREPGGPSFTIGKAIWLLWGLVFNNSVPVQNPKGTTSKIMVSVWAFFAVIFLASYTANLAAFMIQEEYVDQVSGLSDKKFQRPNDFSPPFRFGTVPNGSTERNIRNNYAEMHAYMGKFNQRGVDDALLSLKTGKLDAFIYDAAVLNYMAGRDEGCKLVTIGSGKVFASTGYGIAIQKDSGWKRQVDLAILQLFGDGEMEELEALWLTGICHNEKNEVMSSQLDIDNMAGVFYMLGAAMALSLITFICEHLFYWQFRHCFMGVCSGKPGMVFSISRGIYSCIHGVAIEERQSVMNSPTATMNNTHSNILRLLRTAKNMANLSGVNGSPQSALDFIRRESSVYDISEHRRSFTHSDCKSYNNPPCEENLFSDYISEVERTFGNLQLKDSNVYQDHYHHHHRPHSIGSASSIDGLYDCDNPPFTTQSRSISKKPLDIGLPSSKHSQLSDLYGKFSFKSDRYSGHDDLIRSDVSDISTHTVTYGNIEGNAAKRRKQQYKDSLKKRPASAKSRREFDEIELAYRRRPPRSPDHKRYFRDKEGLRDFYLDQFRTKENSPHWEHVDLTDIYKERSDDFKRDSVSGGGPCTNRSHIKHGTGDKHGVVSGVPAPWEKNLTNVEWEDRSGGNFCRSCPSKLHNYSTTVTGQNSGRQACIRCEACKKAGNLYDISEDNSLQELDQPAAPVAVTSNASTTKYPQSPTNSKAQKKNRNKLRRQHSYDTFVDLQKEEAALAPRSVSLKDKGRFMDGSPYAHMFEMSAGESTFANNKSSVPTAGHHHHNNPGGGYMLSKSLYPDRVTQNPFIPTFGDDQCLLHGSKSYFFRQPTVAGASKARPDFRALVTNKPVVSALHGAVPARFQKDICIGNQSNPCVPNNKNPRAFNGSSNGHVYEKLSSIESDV

T1 sequence (P22303 whole entry): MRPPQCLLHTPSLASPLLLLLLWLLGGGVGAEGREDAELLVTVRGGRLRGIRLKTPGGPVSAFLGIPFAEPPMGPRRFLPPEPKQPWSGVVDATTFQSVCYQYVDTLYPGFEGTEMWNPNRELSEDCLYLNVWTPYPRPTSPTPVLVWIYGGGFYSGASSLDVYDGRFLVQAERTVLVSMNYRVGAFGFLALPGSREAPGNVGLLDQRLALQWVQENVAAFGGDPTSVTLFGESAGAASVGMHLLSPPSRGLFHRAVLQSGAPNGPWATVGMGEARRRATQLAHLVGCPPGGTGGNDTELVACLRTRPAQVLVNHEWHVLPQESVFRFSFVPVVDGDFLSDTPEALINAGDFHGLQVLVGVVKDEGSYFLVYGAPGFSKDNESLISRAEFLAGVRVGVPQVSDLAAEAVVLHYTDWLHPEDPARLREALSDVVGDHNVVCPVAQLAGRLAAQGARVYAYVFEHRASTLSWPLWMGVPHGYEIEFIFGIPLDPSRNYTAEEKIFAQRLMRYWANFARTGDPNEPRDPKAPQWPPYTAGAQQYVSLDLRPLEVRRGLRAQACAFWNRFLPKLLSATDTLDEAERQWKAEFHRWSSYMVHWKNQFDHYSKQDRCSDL

SMILES	Ratio IC50 [1]	inhibition [2]	IC50 [3]	inhibition [4]	inhibition [5]	IC50 [6]	Papp [7]	IC50 [8]	Ratio IC50 [9]	Ratio IC50 [10]	Ratio IC50 [11]	Ki [12]
FC12CC3CC(NCCCCNc4c5c(nc6cc(Cl)ccc46)CCCC5)(CC(C1)c1ccccc13)C2	6 to 44	8.4%	3300 nM	18%	22%	1100 nM	6.3 ×10⁻⁶ cm/s	2 nM				
Nc1c2c(nc3cc(Cl)ccc13)CCCC2				18%	< 5%		20 ×10⁻⁶ cm/s					
O=C(CCCCNc1c2c(nc3cc(Cl)ccc13)CCCC2)NC12CC3CC(F)(CC(C1)c1ccccc13)C2	6 to 44	9%	8300 nM	18%	12.6%	2400 nM	9 ×10⁻⁶ cm/s	1.3 nM				
CC12CC3CC(C)(C1)CC(N)(C3)C2				18%								
NC12CC3CC(F)(CC(C1)c1ccccc13)C2			1900 nM	18%					1.7			
NC12CC3CC(F)(CC(C1)c1cc(NC(=O)CCCNc4c5c(nc6cc(Cl)ccc46)CCCC5)ccc13)C2 (configuration not stated)	6 to 44	< 5%	1200 nM	18%	6.9%	500 nM	2.7 ×10⁻⁶ cm/s	0.3 nM	1.7	2		
FC12CC3CC(NCCCCCNc4c5c(nc6cc(Cl)ccc46)CCCC5)(CC(C1)c1ccccc13)C2	6 to 44	12.3%	900 nM	18%	20.7%	200 nM	6.5 ×10⁻⁶ cm/s	1.4 nM	1.7	2	2	
NC12CC3CC(F)(CC(C1)c1cc(NC(=O)CCCCNc4c5c(nc6cc(Cl)ccc46)CCCC5)ccc13)C2 (configuration not stated)	44	< 5%	3400 nM	18%	22.9%	20 nM	3.1 ×10⁻⁶ cm/s	2.5 nM			24	
COc1ccc2nc3c(c(NCCCCCNC(=S)NC45CC6CC(CC(C6)C4)C5)c2c1)CCCC3												1800 nM
O=C(CCCNc1c2c(nc3cc(Cl)ccc13)CCCC2)NC12CC3CC(F)(CC(C1)c1ccccc13)C2	6 to 44	< 5%	7000 nM	18%	10.2%	2300 nM	9.8 ×10⁻⁶ cm/s	1.4 nM				
